ChEMBL document CHEMBL1156187, “Discovery of a selective small-molecule melanocortin-4 receptor agonist with efficacy in a pilot study of sexual dysfunction in humans” (J Med Chem, 2010)

Columns and labels:
[1] = biological target: T1, Melanocyte-stimulating hormone receptor (Homo sapiens, UniProt Q01726); test: Agonist activity at human recombinant MC1 receptor expressed in HEK293 cells assessed as cAMP accumulation by enzyme fragment complementation assay; assay type: functional, cell-based
Target sequence in this assay (Q01726 whole entry, the tested form may be a part): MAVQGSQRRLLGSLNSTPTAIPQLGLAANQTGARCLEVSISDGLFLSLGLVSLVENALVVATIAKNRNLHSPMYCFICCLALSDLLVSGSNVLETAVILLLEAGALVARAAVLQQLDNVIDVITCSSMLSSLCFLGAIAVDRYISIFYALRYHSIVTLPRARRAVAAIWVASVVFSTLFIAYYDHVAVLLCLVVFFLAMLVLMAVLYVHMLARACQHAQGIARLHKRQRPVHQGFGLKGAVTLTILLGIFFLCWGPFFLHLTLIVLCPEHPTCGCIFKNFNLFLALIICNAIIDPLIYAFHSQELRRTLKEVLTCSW

Melanocortin receptor 5 [2] = biological target: T2, Melanocortin receptor 5 (Homo sapiens, UniProt P33032); test: Agonist activity at human recombinant MC5 receptor expressed in HEK293 cells assessed as cAMP accumulation by beta lactamase reporter gene assay; assay type: functional, cell-based
T2 sequence (P33032 whole entry, the tested form may be a part): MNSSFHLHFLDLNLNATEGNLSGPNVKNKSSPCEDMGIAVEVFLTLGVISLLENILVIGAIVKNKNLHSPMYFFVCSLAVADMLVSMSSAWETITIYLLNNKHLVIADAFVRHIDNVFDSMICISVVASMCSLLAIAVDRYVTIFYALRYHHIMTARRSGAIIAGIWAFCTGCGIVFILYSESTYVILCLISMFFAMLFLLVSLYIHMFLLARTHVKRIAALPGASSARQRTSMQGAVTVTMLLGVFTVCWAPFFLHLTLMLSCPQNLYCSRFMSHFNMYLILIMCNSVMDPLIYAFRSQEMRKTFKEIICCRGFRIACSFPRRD

Melanocortin receptor 3 [3] = biological target: T3, Melanocortin receptor 3 (Homo sapiens, UniProt P41968); test: Agonist activity at human recombinant MC3 receptor expressed in CHO cells assessed as cAMP accumulation by enzyme fragment complementation assay; assay type: functional, cell-based
T3 sequence (P41968 whole entry, the tested form may be a part): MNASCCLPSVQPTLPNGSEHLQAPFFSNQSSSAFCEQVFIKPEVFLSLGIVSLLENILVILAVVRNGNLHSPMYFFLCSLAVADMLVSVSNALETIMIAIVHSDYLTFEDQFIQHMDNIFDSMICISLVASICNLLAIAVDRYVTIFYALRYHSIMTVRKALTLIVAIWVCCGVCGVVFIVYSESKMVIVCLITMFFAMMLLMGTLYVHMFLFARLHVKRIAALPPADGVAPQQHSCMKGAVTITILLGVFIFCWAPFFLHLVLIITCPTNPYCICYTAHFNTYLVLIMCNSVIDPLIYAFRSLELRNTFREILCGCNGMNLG

Melanocortin receptor 5 [4] = biological target: T2, Melanocortin receptor 5; test: Agonist activity at human recombinant MC5 receptor expressed in HEK293 cells assessed as cAMP accumulation by beta lactamase reporter gene assay relative to alpha melanocyte-stimulating hormone; assay type: functional, cell-based
Melanocortin receptor 3 [5] = biological target: T3, Melanocortin receptor 3; test: Agonist activity at human recombinant MC3 receptor expressed in CHO cells assessed as cAMP accumulation by enzyme fragment complementation assay relative to […]; assay type: functional, cell-based
[6] = biological target: T1, Melanocyte-stimulating hormone receptor; test: Agonist activity at human recombinant MC1 receptor expressed in HEK293 cells assessed as cAMP accumulation by enzyme fragment complementation assay relative to alpha melanocyte-stimulating hormone; assay type: functional, cell-based
Target sequence in this assay (Q01726 whole entry, looked up, the tested form may be a part): as the sequence (Q01726 whole entry, the tested form may be a part) above

[7] = Intrinsic clearance in human liver microsome measured per mg of protein; assay type: ADME; conditions: liver microsomes
[8] = biological target: Voltage-gated inwardly rectifying potassium channel KCNH2 (Homo sapiens, UniProt Q12809); test: Displacement of [3H]dofetilide from human ERG expressed in CHO cells by patch clamp method
Sequence of Voltage-gated inwardly rectifying potassium channel KCNH2 (Q12809 whole entry): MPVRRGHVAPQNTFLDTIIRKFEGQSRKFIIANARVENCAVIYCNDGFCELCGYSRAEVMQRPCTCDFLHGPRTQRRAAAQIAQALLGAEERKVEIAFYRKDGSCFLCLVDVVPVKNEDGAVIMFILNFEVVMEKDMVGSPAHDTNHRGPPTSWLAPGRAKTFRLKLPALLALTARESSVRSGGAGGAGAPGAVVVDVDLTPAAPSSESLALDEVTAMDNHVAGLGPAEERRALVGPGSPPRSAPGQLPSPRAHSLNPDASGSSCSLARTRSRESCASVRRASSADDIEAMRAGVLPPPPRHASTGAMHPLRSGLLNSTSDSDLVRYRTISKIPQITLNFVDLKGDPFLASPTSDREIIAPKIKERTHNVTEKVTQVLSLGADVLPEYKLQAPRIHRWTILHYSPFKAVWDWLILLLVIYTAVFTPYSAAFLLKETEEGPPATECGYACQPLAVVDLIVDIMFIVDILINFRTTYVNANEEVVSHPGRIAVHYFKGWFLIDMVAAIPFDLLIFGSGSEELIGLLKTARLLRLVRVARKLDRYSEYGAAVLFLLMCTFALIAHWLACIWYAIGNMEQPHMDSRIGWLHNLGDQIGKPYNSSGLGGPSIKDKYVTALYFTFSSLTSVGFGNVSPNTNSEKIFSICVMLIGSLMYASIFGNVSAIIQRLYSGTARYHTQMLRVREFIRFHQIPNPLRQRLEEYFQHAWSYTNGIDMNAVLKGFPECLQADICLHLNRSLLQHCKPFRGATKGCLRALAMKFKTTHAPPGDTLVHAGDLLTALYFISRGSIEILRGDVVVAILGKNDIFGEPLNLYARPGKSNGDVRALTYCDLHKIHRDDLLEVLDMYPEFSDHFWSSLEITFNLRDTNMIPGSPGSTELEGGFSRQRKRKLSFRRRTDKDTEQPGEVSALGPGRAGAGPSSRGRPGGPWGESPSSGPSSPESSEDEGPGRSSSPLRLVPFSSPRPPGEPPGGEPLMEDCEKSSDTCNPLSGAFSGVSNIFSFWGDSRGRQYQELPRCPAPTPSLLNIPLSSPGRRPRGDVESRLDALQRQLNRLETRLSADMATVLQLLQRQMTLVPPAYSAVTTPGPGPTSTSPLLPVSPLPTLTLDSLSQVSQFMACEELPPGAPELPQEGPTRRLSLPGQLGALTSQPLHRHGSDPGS

[9] = Lipophilicity, log D at pH 7.4; assay type: physicochemical; conditions: buffer
Melanocortin receptor 4 [10] = biological target: T4, Melanocortin receptor 4 (Homo sapiens, UniProt P32245); test: Agonist activity at human recombinant MC4 receptor expressed in CHO cells by cAMP responsive beta lactamase reporter gene assay; assay type: functional, cell-based
T4 sequence (P32245 whole entry): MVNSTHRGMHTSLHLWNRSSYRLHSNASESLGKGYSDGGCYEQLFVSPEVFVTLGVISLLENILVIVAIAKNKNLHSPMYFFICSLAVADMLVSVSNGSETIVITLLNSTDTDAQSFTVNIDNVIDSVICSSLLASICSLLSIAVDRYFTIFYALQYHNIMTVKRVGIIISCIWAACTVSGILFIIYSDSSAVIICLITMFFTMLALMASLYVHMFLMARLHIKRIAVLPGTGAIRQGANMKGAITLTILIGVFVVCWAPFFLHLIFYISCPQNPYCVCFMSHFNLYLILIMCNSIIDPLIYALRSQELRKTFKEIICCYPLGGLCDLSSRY

Melanocortin receptor 4 [11] = biological target: T4, Melanocortin receptor 4; test: Displacement of [125I]-MT-II from human recombinant MC4 receptor expressed in CHO cells by scintillation counting
[12] = Intrinsic clearance in dog liver microsome measured per mg of protein; assay type: ADME, Canis lupus familiaris; conditions: microsomes
[13] = Clearance in rat at 1 mg/kg, iv; assay type: ADME, organism-based; set-up: dose 1 mg/kg, route intravenous; conditions: in vivo
[14] = Fraction unbound in rat plasma; assay type: ADME, cell-free
[15] = Half life in dog at 0.05 mg/kg, iv; assay type: ADME, organism-based, Canis lupus familiaris; set-up: dose 0.05 mg/kg, route intravenous; conditions: in vivo
[16] = Volume of distribution at steady state in rat at 1 mg/kg, iv; assay type: ADME, organism-based; set-up: dose 1 mg/kg, route intravenous; conditions: in vivo, read-out: Vdss
[17] = Clearance in dog plasma at 0.05 mg/kg, iv; assay type: ADME, organism-based, Canis lupus familiaris; set-up: dose 0.05 mg/kg, route intravenous
[18] = Fraction unbound in dog plasma; assay type: ADME, cell-free, Canis lupus familiaris
[19] = Apparent Permeability from basolateral to apical side of MDCK2 cells over expressing MDR1; assay type: ADME, cell-based, Canis lupus familiaris; conditions: dog, MDCK-MDR1; read-out: permeability
[20] = Half life in rat at 1 mg/kg, iv; assay type: ADME, organism-based; set-up: dose 1 mg/kg, route intravenous; conditions: in vivo
[21] = Binding affinity to sodium channel
[22] = Association constant, pKa of the compound; assay type: physicochemical
Liver microsomes = test: Intrinsic clearance in rat liver microsome measured per mg of protein; assay type: ADME
[23] = Oral bioavailability in dog at 0.1 mg/kg; assay type: ADME, organism-based, Canis lupus familiaris; conditions: in vivo
[24] = Volume of distribution at steady state in dog plasma at 0.05 mg/kg, iv; assay type: ADME, organism-based, Canis lupus familiaris; set-up: dose 0.05 mg/kg, route intravenous; conditions: read-out: Vdss
[25] = Apparent Permeability from apical to basolateral side of MDCK2 cells over expressing MDR1; assay type: ADME, cell-based, Canis lupus familiaris; conditions: dog, MDCK-MDR1; read-out: permeability
[26] = Oral bioavailability in rat at 0.1 mg/kg; assay type: ADME, organism-based; conditions: in vivo

EC50 [1] [nM]	EC50 (Melanocortin receptor 5 [2]) [nM]	EC50 (Melanocortin receptor 3 [3]) [nM]	Emax (Melanocortin receptor 5 [4]) [%]	Emax (Melanocortin receptor 3 [5]) [%]	Emax [6] [%]	microsomal CLint [7] [µL/min/mg]	logD [9]	EC50 (Melanocortin receptor 4 [10]) [nM]	Ki (Melanocortin receptor 4 [11]) [nM]	SMILES	other results
750	3640	11600	103	72	100	128	3.2	69	114	CC(C)N1C[C@@H](C(=O)N2C[C@@H](C)[C@](O)(c3ccccc3)[C@@H](C)C2)[C@H](c2ccc(F)cc2F)C1	Ki [8]: > 7880 nM
1120	3600	3050	116	79	99	28	3.1	18	36	C[C@@H]1CN(C(=O)[C@@H]2CN(C(C)(C)C)C[C@H]2c2ccc(F)cc2F)C[C@H](C)[C@@]1(O)c1ccc(F)cc1.Cl	clearance [12]: 8 µL/min/mg; clearance [13]: 34 mL/min/kg; fraction unbound [14]: 0.04; half-life [15]: 10.4 h; Vd [16]: 11 L/kg; clearance [17]: 12 mL/min/kg; fraction unbound [18]: 0.09; Papp B→A [19]: 22 ×10⁻⁶ cm/s; half-life [20]: 3.9 h; Ki [21]: 520 nM; pKa [22]: 8.74; clearance (Liver microsomes): 47 µL/min/mg; bioavailability [23]: 28%; Vd [24]: 11 L/kg; Papp A→B [25]: 26 ×10⁻⁶ cm/s; bioavailability [26]: 74%
–	–	–	61	87	98	–	–	–	–	CCCC[C@H](NC(C)=O)C(=O)N[C@H]1CC(=O)NCCCC[C@@H](C(N)=O)NC(=O)[C@H](Cc2c[nH]c3ccccc23)NC(=O)[C@H](CCCNC(=N)N)NC(=O)C(Cc2ccccc2)NC(=O)[C@H](CC2=NC=NC2)NC1=O (single isomer, unassigned)	–
